Source: patent US20250040548A1, “Herbicidal compositions comprising saflufenacil” (BASF SF, priority 2023, published 2025)

What was measured:
[1] = system: COMBE; test: Post-emergence application in greenhouse trials; format: in vivo, Commelina benghalensis; settings: growth stage 21, 1% MSO
Protocol: (§1) In the examples below, using the method of S. R. Colby (1967) “Calculating synergistic and antagonistic responses of herbicide combinations”, Weeds 15, p. 22ff., the value E, which is expected if the activity of the individual active compounds is only additive, was calculated.
(§2) [formula] • where • X=percent activity using active herbicide A at an application rate a; • Y=percent activity using active saflufenacil at an application rate b; • E=expected activity (in %) by A+B at application rates a+b.
(§3) If the value found experimentally is higher than the value E calculated according to Colby, a synergistic effect is present.
(§4) The culture containers used were plastic pots containing loamy sand with approximately 3.0% of humus as substrate. The seeds of the test plants were sown separately for each species.
(§5) For the post-emergence treatment, the test plants were grown to a plant height of from 3 to 15 cm, depending on the plant habit, and only then treated with the active compounds which had been suspended or emulsified in water. To this end, the test plants were either sown directly, and grown in the same containers, or they were first grown separately as seedlings and transplanted into the test containers a few days prior to treatment.
(§6) Depending on the species, the plants were kept at 10-25° C. and 20-35° C., respectively.
(§7) The test period extended over 2 to 4 weeks. During this time, the plants were tended and their response to the individual treatments was evaluated.
(§8) Evaluation was carried out using a scale from 0 to 100. 100 means no emergence of the plants, or complete destruction of at least the above-ground parts, and 0 means no damage or normal course of growth. A good herbicidal activity is given at values of at least 70, and very good herbicidal activity is given at values of at least 85.
(§9) Unless indicated otherwise, herbicide A and saflufenacil were formulated (50 g/I) and applied with addition of 1% MSO (methylated seed oil) as adjuvant. In the greenhouse trials, the solvent used was water (200 I/ha).

[2] = system: SETFA; test: Post-emergence application in greenhouse trials; format: in vivo, Setaria faberi; settings: 7 DAT, growth stage 13, 1% MSO
Protocol: as §1, §2, §3, §4, §5, §6, §7, §8, §9

[3] = system: AMATA; test: Post-emergence application in greenhouse trials; format: in vivo, Amaranthus tamariscinus; settings: 20 DAT, growth stage 14, 1% MSO
Protocol: as §1, §2, §3, §4, §5, §6, §7, §8, §9

[4] = system: AVEFA; test: Post-emergence application in field trials (Examples 2 and 3); format: in vivo, Avena fatua; settings: 1% v/v MSO
Protocol: as §1, §2, §3
(§10) On field test sites, natural weed infestation or seeded weeds were treated post-emergence of the weeds.
(§11) For the post emergence treatment, the weedy plants were treated as indicated below. The herbicidal compositions were, together with the adjuvant(s) as indicated, suspended or emulsified in water (200 l/ha unless indicated otherwise) as distribution medium and sprayed with commercial flat fan nozzles.
(§12) In the following experiments, the herbicidal activity for the individual herbicidal compositions (solo and mixture applications) was assessed the indicated days after treatment (DAT). The assessments for the damage on undesired weeds caused by the composition was carried out using a scale from 0 to 100%, compared to the untreated control plants. Here, 0 means no damage and 100 means complete destruction of the plants.
(§13) For the post emergence treatment, the weedy plants were treated as indicated below. The herbicidal compositions were, together with the adjuvant(s) as indicated, suspended or emulsified in water (200 I/ha unless indicated otherwise) as distribution medium and sprayed with commercial flat fan nozzles.

[5] = system: AVEST; test: as above; format: in vivo, Avena stirilis; settings: growth stage 12-22, A-1 solo 12.5 g ai/ha, 14 DAT, 1% v/ MSO
Protocol: as §1, §2, §3, §10, §11
(§14) In the following experiments, the herbicidal activity for the individual herbicidal compositions (solo and mixture applications) was assessed the indicated days after treatment (DAT). The assessments for the damage on undesired weeds caused by the composition was carried out using a scale from 0 to 100%, compared to the untreated control plants. […]

[6] = system: BIDPI; test: as above; format: in vivo, Bidens pilosa; settings: A-1 25 g ai/ha, 21 DAT, growth stage 12-16, height 5-10 cm, 0.5% MSO
Protocol: as §1, §2, §3, §10, §11, §14

[7] = system: CYPES; test: as above; format: in vivo, Cyperus esculentus; settings: A-1 12.5 g ai/ha, 21 DAT, height 15-23 cm, 140 l/ha water, 1% MSO + 2.5% ammoniumsulfate
Protocol: as §1, §2, §3, §10, §11, §14

[8] = system: DIGSA; test: as above; format: in vivo, Digitaria sanguinales; settings: A-1 12.5 g ai/ha
Protocol: as §1, §2, §3, §10, §11, §12, §13

[9] = system: ECHCG; test: as above; format: in vivo, Echinocloa crus-galli
Protocol: as §1, §2, §3, §10, §11, §12, §13

[10] = system: IPOTR; test: as above; format: in vivo, Ipomoea triloba; settings: growth stage 40-41, height 65-75 cm, A-1 solo 30 g ai/ha, 21 DAT, 1% Dash ® HC
Protocol: as §1, §2, §3, §10, §11, §14

[11] = system: LAMAN; test: as above; format: in vivo, Lamium amplexicaule; settings: height 3-18 cm, A-1 solo 25 g ai/ha, 21 DAT, 1% v/v MSO and 1% AMS (ammonium sulfate)
Protocol: as §1, §2, §3, §10, §11, §14

[12] = system: LOLRI; test: as above; format: in vivo, Lolium rigidum; settings: growth stage 12-22, A-1 solo 25 g ai/ha, 14 DAT, 1% v/ MSO
Protocol: as §1, §2, §3, §10, §11, §14

[13] = system: SETIT; test: as above; format: in vivo, Setaria italica; settings: height 21-31 cm, A-1 solo 40 g ai/ha, 22 DAT, 1% v/v MSO
Protocol: as §1, §2, §3, §10, §11, §14

[14] = system: SORVU* (non-PPOi herbicide tolerant); test: as above; format: in vivo, Sorghum vulgare
Protocol: as §1, §2, §3, §10, §11, §12, §13

[15] = system: STEME; test: as above; format: in vivo, Stellaria media; settings: A-1 12.5 g ai/ha, 21 DAT, growth stage 63-67, height 7-18 cm, 140 l/ha water, 1% MSO + 2.5% ammoniumsulfate
Protocol: as §1, §2, §3, §10, §11, §14

## CCOC(=O)COc1ccccc1Oc1nc(-n2c(=O)cc(C(F)(F)F)n(C)c2=O)c(F)cc1Cl [A-1, ethyl 2-[2-[[3-chloro-5-fluoro-6-[3-methyl-2,6-dioxo-4-(trifluoromethyl)pyrimidin-1-yl]-2-pyridyl]oxy]phenoxy]acetate]
[1]; A-1 0.2 g ai/ha, 6 DAT
  % Herbicidal activity: 15%
[1]; A-1 0.2 g ai/ha, 20 DAT
  % Herbicidal activity: 40%
[1]; A-1 0.4 g ai/ha, 20 DAT
  % Herbicidal activity: 75%
[2]; A-1 0.2 g ai/ha
  % Herbicidal activity: 35%
[2]; A-1 0.3 g ai/ha
  % Herbicidal activity: 55%
[2]; A-1 0.4 g ai/ha
  % Herbicidal activity: 65%
[2]; A-1 0.5 g ai/ha
  % Herbicidal activity: 80%
[3]; A-1 0.2 g ai/ha
  % Herbicidal activity: 75%
[3]; A-1 0.3 g ai/ha
  % Herbicidal activity: 75%
[4]; A-1 18 g ai/ha, 28 DAT, growth stage 14-15, height 9-16 cm, field, 100 l/ha water
  % Herbicidal activity: 83%
[4]; A-1 18 g ai/ha, 29 DAT, growth stage 14-23, height 24-40 cm, field, 100 l/ha water
  % Herbicidal activity: 80%
[4]; AVEFA, growth stage 15-16, height 25-38 cm, A-1 solo 12.5 g ai/ha, 16 DAT
  % Herbicidal activity: 90%
[4]; AVEFA, growth stage 15-16, height 25-38 cm, A-1 solo 25 g ai/ha, 16 DAT
  % Herbicidal activity: 95%
[4]; AVEFA, growth stage 15-16, height 25-38 cm, A-1 solo 50 g ai/ha, 16 DAT
  % Herbicidal activity: 98%
[5]
  % Herbicidal activity: 95%
[6]
  % Herbicidal activity: 94%
[7]
  % Herbicidal activity: 47%
[8]; 19 DAT, growth stage 13-19, height 2.5-7.5 cm, 1% v/v MSO and 1% w/v ammoniumsulfate
  % Herbicidal activity: 87%
[8]; 21 DAT, height 3-12 cm, 140 l/ha water, 1% MSO + 2.5% ammoniumsulfate
  % Herbicidal activity: 50%
[9]; A-1 12.5 g ai/ha, 14 DAT, growth stage 14-19, height 2-8 cm, field, 140 l/ha water, 1% MSO + 2.5% ammoniumsulfate
  % Herbicidal activity: 75%
[9]; A-1 25 g ai/ha, 21 DAT, height 12.5-30 cm, field, 1% v/v MSO and 1% w/v ammoniumsulfate
  % Herbicidal activity: 58%
[9]; ECHCG, growth stage 21-23, height 43-44 cm, A-1 solo 30 g ai/ha, 21 DAT, 1% Dash ® HC
  % Herbicidal activity: 52%
[10]
  % Herbicidal activity: 57%
[11]
  % Herbicidal activity: 93%
[12]
  % Herbicidal activity: 85%
[13]
  % Herbicidal activity: 83%
[14]; A-1 50 g ai/ha, 25 DAT, growth stage 14-15, field, 0.25 l/ha Dash MSO Max ®
  % Herbicidal activity: 93%
[14]; SORVU* (non-PPOi herbicide tolerant), height 21-31 cm, A-1 solo 30 g ai/ha, 22 DAT, 1% v/v MSO
  % Herbicidal activity: 96%
[15]
  % Herbicidal activity: 83%
